Assay results from PubChem BioAssay (NCI).
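Growth conditions: 96-well plates. Treatment: test compound, 48 hours, 5 concentrations. Analysis: linear interpolation between bracketing concentrations; unreached endpoints set to highest concentration. At the TGI there is no net growth.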

Experiments:
Assay in all cases: DTP human tumour cell line panel, 48 h
[1] = test system: MALME-3M melanoma
[2] = test system: K-562 leukemia
[3] = test system: M19-MEL melanoma
[4] = test system: RPMI-8226 leukemia
[5] = test system: NCI-H522 lung
[6] = test system: HT29 colon
[7] = test system: U251 CNS
[8] = test system: SF-539 CNS
[9] = test system: M14 melanoma
[10] = test system: BT-549 breast
[11] = test system: DU-145 prostate
[12] = test system: MCF7 breast
[13] = test system: SK-MEL-28 melanoma
[14] = test system: UO-31 renal
[15] = test system: OVCAR-5 ovarian
[16] = test system: SK-OV-3 ovarian
[17] = test system: MOLT-4 leukemia
[18] = test system: SN12C renal
[19] = test system: SR leukemia
[20] = test system: HS 578T breast
[21] = test system: 786-0 renal
[22] = test system: CAKI-1 renal
[23] = test system: COLO 205 colon
[24] = test system: A549 NSCLC
[25] = test system: HOP-92 NSCLC
[26] = test system: SK-MEL-2 melanoma
[27] = test system: RXF 393 renal
[28] = test system: T-47D breast
[29] = test system: CCRF-CEM leukemia
[30] = test system: HCT-15 colon
[31] = test system: SK-MEL-5 melanoma
[32] = test system: HL-60(TB) leukemia
[33] = test system: SNB-19 CNS
[34] = test system: OVCAR-8 ovarian
[35] = test system: NCI-H460 lung
[36] = test system: SF-268 CNS
[37] = test system: UACC-257 melanoma
[38] = test system: EKVX NSCLC
[39] = test system: UACC-62 melanoma
[40] = test system: ACHN renal
[41] = test system: A498 renal
[42] = test system: OVCAR-3 ovarian
[43] = test system: HCT-116 colon
[44] = test system: NCI-H23 lung
[45] = test system: OVCAR-4 ovarian
[46] = test system: KM12 colon
[47] = test system: MDA-MB-231 breast
[48] = test system: PC-3 prostate
[49] = test system: HOP-62 NSCLC
[50] = test system: NCI-H226 lung
[51] = test system: SF-295 CNS
[52] = test system: LOX IMVI melanoma
[53] = test system: MDA-N
[54] = test system: TK-10 renal
[55] = test system: MDA-MB-435
[56] = test system: NCI/ADR-RES ovarian
[57] = test system: IGROV1 ovarian

Measured: TGI

COc1ccc(C(c2ccccc2)C(C)C(=O)c2c(C)cc(C)cc2C)cc1 (stereo unspecified)
> 100 µM: [1] | [2] | [3] | [4] | [5] | [6]

O=C(CCc1cccc(O)c1)NCCc1ccc(O)cc1
not listed: [3] | [4]
> 100 µM: all other assays above
